Assay results: patent publication US12070594B2, “Biomedical electrode with anti-microbial properties” (Compass Health Brands Corp., priority 2018, dated 2024)

What was measured:
Type in all cases: cell-based
E. faecalis ATCC 51575 = assay: Antibiotic Susceptibility of the Test Microorganisms
S. aureus ATCC 25923 = assay: Antibiotic susceptibility, reference microorganism
[1] = test system: A. baumannii ATCC BAA-1605; assay: Antibiotic Susceptibility of the Test Microorganisms
E. cloacae ATCC BAA-2468 = assay: as above
P. aeruginosa ATCC 27853 = assay: Antibiotic susceptibility, reference microorganism
E. coli ATCC 25922 = assay: Antibiotic susceptibility, reference microorganism
S. aureus ATCC 33592 = assay: Antibiotic Susceptibility of the Test Microorganisms
[2] = susceptibility ≥21 mm, resistance ≤17 mm (CLSI M100)

| SMILES | Test Microorganism Demonstrates Resistance? (E. faecalis ATCC 51575) | Test Microorganism Diameter (E. faecalis ATCC 51575; susceptibility ≥17 mm, resistance ≤14 mm (CLSI M100)) [mm] | Reference Microorganism Diameter (S. aureus ATCC 25923) [mm] | Test Microorganism Demonstrates Resistance? [1] | Test Microorganism Diameter [1, 2] [mm] | Test Microorganism Demonstrates Resistance? (E. cloacae ATCC BAA-2468) | Test Microorganism Diameter (E. cloacae ATCC BAA-2468; [2]) [mm] | Reference Microorganism Diameter (P. aeruginosa ATCC 27853) [mm] | Reference Microorganism Diameter (E. coli ATCC 25922) [mm] | Test Microorganism Demonstrates Resistance? (S. aureus ATCC 33592) | Test Microorganism Diameter (S. aureus ATCC 33592; susceptibility ≥13 mm, resistance ≤10 mm (CLSI M100)) [mm] |
| --- | --- | --- | --- | --- | --- | --- | --- | --- | --- | --- | --- |
| CN[C@H](CC(C)C)C(=O)N[C@H]1C(=O)N[C@@H](CC(N)=O)C(=O)N[C@H]2C(=O)N[C@H]3C(=O)N[C@H](C(=O)N[C@H](C(=O)O)c4cc(O)cc(O)c4-c4cc3ccc4O)[C@H](O)c3ccc(c(Cl)c3)Oc3cc2cc(c3O[C@@H]2O[C@H](CO)[C@@H](O)[C@H](O)[C@H]2O[C@H]2C[C@](C)(N)[C@H](O)[C@H](C)O2)Oc2ccc(cc2Cl)[C@H]1O [Vancomycin] | Yes | 11.3 | 21.2 | – | – | – | – | – | – | – | – |
| CCN1CCN(C(=O)N[C@@H](C(=O)N[C@@H]2C(=O)N3[C@@H]2SC(C)(C)[C@@H]3C(=O)O)c2ccccc2)C(=O)C1=O [Piperacillin] | – | – | – | Yes | 6.5 | Yes | 6.5 | 26.2 | 25.3 | – | – |
| Cc1onc(-c2ccccc2)c1C(=O)N[C@@H]1C(=O)N2[C@@H]1SC(C)(C)[C@@H]2C(=O)O [Oxocillin] | – | – | 51.9 | – | – | – | – | – | – | Yes | 9.2 |
